Experimental data as given in patent US20180153995A1, “USE OF ANTIMICROBIAL POLYMERS FOR RE-SENSITIZATION OF MICROORGANISMS UPON EMERGENCE OF RESISTANCE TO ANTI-MICROBIAL AGENTS” (Technion Research & Development Foundation Limited, priority 2008, published 2018).
Like-named read-outs stand apart in the source and are kept apart here.

What was measured:
E. coli 14384 = test: Antibiotic MIC by microdilution with or without sub-MIC polymer; type: cell-based, Escherichia coli; details: E. coli 14384
Experimental: (§1) MICs were determined by microdilution susceptibility testing in 96-well plates (by Nunc) using inocula of 10^5 bacteria per ml. Cell populations were evaluated by optical density measurements at 620 nm and were calibrated against a set of standards. Hundred (100) μl of a bacterial suspension were added to 100 μl of culture medium (control) or to 100 μl of culture medium containing various polymer concentrations in 2-fold serial dilutions. Inhibition of proliferation was determined by optical density measurements at 620 nm after an incubation period of 24 hours at 37° C.
(§2) 100 μl of a bacterial suspension were added to 100 μl of culture medium (control) or to 100 μl of culture medium containing various antibiotic and C14(9-ene)KKNC12KNH2 (SEQ ID NO: 5) concentrations in 2-fold serial dilutions. Inhibition of proliferation was determined by optical density measurements at 620 nm after an incubation period of 24 hours at 37° C.

S. aureus 43300 [1] = test: as above; type: cell-based, Staphylococcus aureus
S. aureus 43300 [2] = test: as above; type: cell-based, Staphylococcus aureus; remark: listed apart in the source
Experimental: as §1
Table 8 below presents the MIC values of antibiotics in presence or absence of C12(5-ene)KKNC12KNH2 (SEQ ID NO: 2) at sub-MIC levels of the polymer, as measured for the S. aureus strains 43300 (ATCC), 15819 (clinical isolate), 15877 (clinical isolate) and 15852 (clinical isolate). MICs were determined by microdilution susceptibility testing in 96-well plates (Nunc) using inocula of 10^5 bacteria per ml. One hundred (100) μl of a bacterial suspension were added to 100 μl of culture medium (control) or to 100 μl of culture medium containing various antibiotic and C12(5-ene)KKNC12KNH2 (SEQ ID NO: 2) concentrations in 2-fold serial dilutions. Inhibition of proliferation was determined by optical density measurements at 620 nm after an incubation period of 24 hours at 37° C.
as §2

E. coli 14182 = test: as above; type: cell-based, Escherichia coli; details: polymer at ½ of its MIC
S. aureus 15819 = test: as above; type: cell-based, Staphylococcus aureus; details: S. aureus 15819
[3] = system: E. coli K-12 resistant wild type; type: cell-based, Escherichia coli; details: E. coli AG100 (w.t.)
S. maltophila 748 = test: Antibiotic MIC by microdilution with or without sub-MIC polymer; type: cell-based, Stenotrophomonas maltophila
[4] = system: E. coli K-12 efflux knockout mutant; type: cell-based, Escherichia coli; details: E. coli AG100A (efflux−)
Experimental: as §1

MRSA 15903 = test: microbe, parasite or virus in culture; type: cell-based, Staphylococcus aureus
Experimental: The fractionary inhibitory (FIC) concentration index for combinations of two antimicrobial agents was calculated as follows: FIC index=FICA+FICB=A/MICA+B/MICB where A and B are the MIC values of agent A and agent B in the combination, MICA and MICB are the MICs of agent A and agent B alone, and FICA and FICB are the FICs of agent A and agent B.
The FIC indexes were interpreted as follows: less than 0.5 indicates a clear re-sensitizing effect; from 0.5 to 4 indicates a marginal or null re-sensitizing effect; and over 4 indicates antagonism.
Experimental data for FIG. 4 were obtained as follows.

[5] = +¼ MIC (1.6 μM) C14(9-ene)KKNC12KNH2
[6] = +½ MIC (3.12 μM) C14(9-ene)KKNC12KNH2
[7] = +⅓ MIC (2.1 μM) C14(9-ene)KKNC12KNH2
[8] = +¼ MIC (1.6 μM) C12K(KNC12K)3NH2
[9] = +½ MIC (3.12 μM) C12K(KNC12K)3NH2
[10] = +⅓ MIC (2.1 μM) C12K(KNC12K)3NH2
[11] = polymer at ¼ of its MIC (Table 16)
[12] = polymer at ½ of its MIC (Table 16)
[13] = polymer at ⅓ of its MIC (Table 16)
[14] = the OAK at ¼ of its MIC (Table 17)
[15] = the OAK at ½ of its MIC (Table 17)
[16] = the OAK at ⅓ of its MIC (Table 17)

With gentamicin the “Antibiotic MIC” value (E. coli 14384; [5]) was 4 µg/mL, the “Antibiotic MIC” value (E. coli 14384; [6]) was 2 µg/mL and the “Antibiotic MIC” value (E. coli 14384; +½ MIC C12K(NC8K)5NH2) was 1 to 2 µg/mL. For the same substance, the “Antibiotic MIC” value (E. coli 14384; [7]) was 4 µg/mL, the “Antibiotic MIC, None” value (E. coli 14384; antibiotic alone (Table 15)) was 4 µg/mL and the “Antibiotic MIC” value (E. coli 14384; no polymer (None), Table 9) was 4 µg/mL. For the same substance, the “Antibiotic MIC” value (E. coli 14384; no polymer (None), Table 14) was 4 µg/mL, the “Antibiotic MIC in presence of C12K(NC8K)7NH2 (SEQ ID NO: 4), +¼ MIC” value (“Antibiotic MIC … (SEQ ID NO: 4), +¼ MIC” below) (E. coli 14384; polymer at ¼ of its MIC) was 4 µg/mL and the “Antibiotic MIC in presence of C12K(NC8K)7NH2 (SEQ ID NO: 4), +½ MIC” value (shortened to “Antibiotic MIC … (SEQ ID NO: 4), +½ MIC”) (E. coli 14384; polymer at ½ of its MIC) was 2 µg/mL. The “Antibiotic MIC in presence of C12K(NC8K)7NH2 (SEQ ID NO: 4), +⅓ MIC” value (“Antibiotic MIC … (SEQ ID NO: 4), +⅓ MIC” below) (E. coli 14384; polymer at ⅓ of its MIC) was 2 to 4 µg/mL, the “Antibiotic MIC” value (S. aureus 43300 [1]; +¼ MIC (1.6 μM) C16(9-ene)KKNC12KNH2) was 64 µg/mL and the “Antibiotic MIC” value (S. aureus 43300 [1]; +½ MIC (3.12 μM) C16(9-ene)KKNC12KNH2) was 32 to 64 µg/mL. For the same substance, the “Antibiotic MIC” value (S. aureus 43300 [1]; +⅓ MIC (2.1 μM) C16(9-ene)KKNC12KNH2) was 64 µg/mL, the “Antibiotic MIC” value (S. aureus 43300 [2]; [5]) was 64 to 128 µg/mL and the “Antibiotic MIC” value (S. aureus 43300 [2]; [6]) was 64 to 128 µg/mL. The “Antibiotic MIC” value (S. aureus 43300 [2]; [7]) was 64 to 128 µg/mL, the “Antibiotic MIC” value (S. aureus 43300 [2]; no polymer (None), Table 9) was 64 to 128 µg/mL and the “Antibiotic MIC” value (S. aureus 43300 [2]; no polymer (None), Table 10) was 64 µg/mL. For the same substance, the “Antibiotic MIC … (SEQ ID NO: 4), +½ MIC” value (E. coli 14182) was 64 to 128 µg/mL, the “Antibiotic MIC” value (S. aureus 15819; +¼ MIC (1.6 μM) C12(5-ene)KKNC12KNH2) was 1 µg/mL and the “Antibiotic MIC” value (S. aureus 15819; [8]) was 1 µg/mL. The “Antibiotic MIC” value (S. aureus 15819; +¼ MIC (1.6 μM) C12KKNC12KNH2) was 1 µg/mL, the “Antibiotic MIC” value (S. aureus 15819; +½ MIC (3.12 μM) C12(5-ene)KKNC12KNH2) was 1 µg/mL and the “Antibiotic MIC” value (S. aureus 15819; [9]) was 0.5 µg/mL. For the same substance, the “Antibiotic MIC” value (S. aureus 15819; +½ MIC (3.12 μM) C12KKNC12KNH2) was 1 µg/mL, the “Antibiotic MIC” value (S. aureus 15819; +⅓ MIC (2.1 μM) C12(5-ene)KKNC12KNH2) was 1 µg/mL and the “Antibiotic MIC” value (S. aureus 15819; [10]) was 1 µg/mL. The “Antibiotic MIC” value (S. aureus 15819; +⅓ MIC (2.1 μM) C12KKNC12KNH2) was 1 µg/mL, the “Antibiotic MIC” value (S. aureus 15819; no polymer (None), Table 8) was 1 µg/mL and the “Antibiotic MIC” value (S. aureus 15819; no polymer (None), Table 11) was 1 µg/mL. For the same substance, the “Antibiotic MIC” value (S. aureus 15819; no polymer (None), Table 13) was 1 µg/mL, the “Antibiotic MIC, None” value ([3]; antibiotic alone (Table 16)) was 4 to 8 µg/mL and the “Antibiotic MIC, None” value ([3]; antibiotic alone (Table 17)) was 4 to 8 µg/mL. The “Antibiotic MIC … (SEQ ID NO: 4), +¼ MIC” value [3, 11] was 4 µg/mL, the “Antibiotic MIC … (SEQ ID NO: 4), +½ MIC” value [3, 12] was 2 µg/mL and the “Antibiotic MIC … (SEQ ID NO: 4), +⅓ MIC” value [3, 13] was 4 µg/mL. For the same substance, the “Antibiotic MIC in presence of the OAK, +¼ MIC” value [3, 14] was 4 µg/mL, the “Antibiotic MIC in presence of the OAK, +½ MIC” value [3, 15] was 4 µg/mL and the “Antibiotic MIC in presence of the OAK, +⅓ MIC” value [3, 16] was 4 µg/mL. The “Antibiotic MIC” value (S. maltophila 748; [8]) was 16 µg/mL, the “Antibiotic MIC” value (S. maltophila 748; [9]) was 8 µg/mL and the “Antibiotic MIC” value (S. maltophila 748; [10]) was 16 µg/mL. For the same substance, the “Antibiotic MIC” value (S. maltophila 748; no polymer (None), Table 13) was 16 µg/mL, the “Antibiotic MIC, None” value ([4]; antibiotic alone (Table 16)) was 4 to 8 µg/mL and the “Antibiotic MIC, None” value ([4]; antibiotic alone (Table 17)) was 4 to 8 µg/mL. For the same substance, the “Antibiotic MIC … (SEQ ID NO: 4), +¼ MIC” value [4, 11] was 4 µg/mL, the “Antibiotic MIC … (SEQ ID NO: 4), +½ MIC” value [4, 12] was 2 to 4 µg/mL and the “Antibiotic MIC … (SEQ ID NO: 4), +⅓ MIC” value [4, 13] was 4 µg/mL. For the same substance, the “Antibiotic MIC in presence of the OAK, +¼ MIC” value [4, 14] was 4 µg/mL, the “Antibiotic MIC in presence of the OAK, +½ MIC” value [4, 15] was 4 µg/mL and the “Antibiotic MIC in presence of the OAK, +⅓ MIC” value [4, 16] was 4 µg/mL. It also gave an MIC (MRSA 15903; MRSA 15903, +¼ polymer MIC (1.6 μM) NC12(KNC12K)2NH2) of 128 µg/mL, an MIC (MRSA 15903; MRSA 15903, +½ polymer MIC (3.1 μM) NC12(KNC12K)2NH2) of 128 µg/mL and an MIC (MRSA 15903; MRSA 15903, +⅓ polymer MIC (2.1 μM) NC12(KNC12K)2NH2) of 128 µg/mL. It also gave an MIC (MRSA 15903; S. aureus CI-15903, +polymer (½ MIC) C12(5-ene)KKNC12KNH2) of 128 µg/mL and an MIC (MRSA 15903; S. aureus CI-15903, +polymer (⅓ MIC) C12(5-ene)KKNC12KNH2) of 128 µg/mL.
